Laboratory results as given in US9120789B2, “1-(5-tert-butyl-2-phenyl-2H-pyrazol-3-yl)-3-[2-fluoro-4-(1-methyl-2-oxo-2,3-dihydro-1H-imidazo[4,5-b]pyridin-7-yloxy)-phenyl]-urea and related compounds and their use in therapy” (CANCER RESEARCH TECHNOLOGY LIMITED, priority 2010, dated 2015).

What was measured:
B-RAF = B-RAF (Homo sapiens, UniProt P15056); experiment: Assay A - DELFIA kinase assay; assay type: biochemical; conditions: 100 μM ATP; mean of usually three assays; read-out: Assay A BRAF IC50
Sequence of B-RAF (P15056 whole entry): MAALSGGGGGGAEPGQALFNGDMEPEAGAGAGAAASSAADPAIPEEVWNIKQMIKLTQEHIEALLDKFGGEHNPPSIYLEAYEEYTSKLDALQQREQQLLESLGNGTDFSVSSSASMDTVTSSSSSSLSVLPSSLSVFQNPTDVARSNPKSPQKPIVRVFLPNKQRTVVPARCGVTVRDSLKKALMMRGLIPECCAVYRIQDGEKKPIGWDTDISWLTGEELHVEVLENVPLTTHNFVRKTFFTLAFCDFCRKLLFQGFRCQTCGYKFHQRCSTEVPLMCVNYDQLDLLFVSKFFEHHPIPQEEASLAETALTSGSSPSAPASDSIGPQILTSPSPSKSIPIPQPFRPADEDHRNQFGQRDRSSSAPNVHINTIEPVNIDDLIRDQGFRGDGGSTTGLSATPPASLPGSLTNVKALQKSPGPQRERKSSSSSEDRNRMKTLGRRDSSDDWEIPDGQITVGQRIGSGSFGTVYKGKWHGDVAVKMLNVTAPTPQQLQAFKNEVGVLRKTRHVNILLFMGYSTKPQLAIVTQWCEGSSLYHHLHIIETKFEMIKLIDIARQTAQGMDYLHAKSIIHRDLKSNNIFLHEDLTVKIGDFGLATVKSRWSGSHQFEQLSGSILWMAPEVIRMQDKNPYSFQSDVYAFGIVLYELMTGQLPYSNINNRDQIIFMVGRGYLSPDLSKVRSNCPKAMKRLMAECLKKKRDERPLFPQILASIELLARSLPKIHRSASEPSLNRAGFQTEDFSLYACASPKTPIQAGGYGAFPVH
Method: Biological Methods—Assay A—DELFIA Kinase Assay
Compounds were assessed by a kinase assay performed according to the following protocol.
The following reagents were prepared:
DELFIA Kinase Buffer (DKB):
DKB1 (DKB with B-RAF and MEK Protein):
Combine 4950 μL of DKB and 50 μL of 2.5 mg/mL GST-MEK stock (to give 1 mg of MEK per 40 μL). Then add 22.5 μL of B-RAF to give ˜0.2 μL of B-RAF per 40 μL.
DKB2 (DKB with MEK Protein):
Combine 4950 μL of DKB and 50 μL of 2.5 mg/mL GST-MEK stock (to give […] of MEK per 40 μL). Use 500 μL of this for the blow out (BO) and the empty vector (EV) control.
100 mM stock, dilute to 500 μM to give 100 μM final concentration in assay.
Inhibitors (Test Compounds):
Phospho-MEK1/2 CST #9121S diluted 1:1000 in DELFIA assay buffer (AB). Pre-incubate antibody in the AB for 30 minutes at room temperature prior to use.
Anti-rabbit-Eur labelled secondary Perkin Elmer #AD0105 diluted 1:1000 in DELFIA assay buffer (AB). Pre-incubate antibody in the AB for 30 minutes at room temperature prior to use. (Primary and secondary antibodies were incubated together.)
DELFIA assay buffer Perkin Elmer #4002-0010.
DELFIA enhancement solution Perkin Elmer #4001-0010.
96 well glutathione-coated black plate Perbio #15340.
1. Preblock wells with 5% milk in TBS for 1 hour.
2. Wash wells 3× with 200 μL TBS.
3. Plate out 40 μL of DKB1 for all inhibitors (test compounds), DMSO control, and optionally other control compounds.
4. Plate out 40 μL of DKB2 for BO and EV wells.
5. Add inhibitors (test compounds) at 0.5 μL per well according to desired plate layout.
6. Add 0.5 μL DMSO to vehicle control wells.
7. Add 2 μL of B-RAF to BO and EV wells.
8. Pre-incubate with inhibitors (test compounds) for 10 minutes at room temperature with shaking.
9. Add 10 μL of 500 μM ATP stock, in DKB, to give 100 μM assay concentration.
10. Seal plates with TopSeal and incubate at room temperature with shaking for 45 minutes.
11. Wash plates 3× with 200 μL 0.1% Tween20/Water to terminate reaction.
12. Add 50 μL per well of antibody mix and incubate for 1 hour at room temperature with shaking.
13. Wash plates 3× with 200 μL 0.1% Tween20/Water.
14. Add 100 μL DELFIA enhancement solution per well, cover in foil, and incubate at room temperature for 30 minutes with shaking.
15. Read on Victor using Europium protocol.
(§1) Values for the blank (Empty Vector) are subtracted from all values. The DMSO controls are set as 100% activity and assay points (the response) are calculated as a percentage of the DMSO control. Data are plotted using Graphpad Prism software and a non-linear regression line is calculated using a variable slope sigmoidal dose-response equation: Y=Bottom+[Top−Bottom]/[1+10^((Log EC50−X)*HillSlope)] where X is the logarithm of concentration and Y is the response. The IC50 generated by this procedure is the concentration of the drug that produces a percentage control fluorescence value midway between the saturation, and zero-effect plateaus. Three independent assays are usually performed and the mean IC50 is reported. Biological Methods—Assay B—Cell Based Phosho-ERK Assay

[1] = system: WM266.4 melanoma cell line (mutant BRAF); experiment: Assay C - SRB cell proliferation assay, WM266.4; assay type: cell-based; conditions: Homo sapiens, WM 266-4, 120 h; WM266.4, 5 days growth
Method: as §1, with “blank (no cells)” for “blank (Empty Vector)”, “the response).” for “the response.”, “Methods—Assay C—SRB Cell Proliferation” for “Methods—Assay B—Cell Based Phosho-ERK”, “Assay (SRB GI50)” for “Assay”
Cell lines (e.g., WM266.4 and A375M melanoma cell lines; SW620 colorectal carcinoma cell line) are routinely cultured in DMEM or RPMI1640 supplemented with 10% foetal bovine serum, at 37° C., in 10% CO2 water saturated atmosphere. Cultures are maintained in exponential growth phase by sub-culturing before having become confluent (3-5 day intervals). Single cell suspensions are prepared by harvesting an 80 cm^2 tissue culture flask with 5 mL commercial trypsin EDTA. After 5 minutes, the detached cells are mixed with 5 mL fully complemented culture medium and centrifugally pelleted (1000 rpm for 7 minutes). After aspirating the supernatant, the cell pellet is re-suspended in 10 mL fresh medium and the cells fully disaggregated by drawing the whole volume up/down 5 times through a 19-gauge needle. The concentration of the cells is determined using a haemocytometer ( 1/10 dilution). A suitable volume to give at least a 2-fold excess for the number of tests being conducted, typically 100-200 mL, is prepared by diluting the cell suspension to 10,000-40,000/mL, and 100 μL/well dispensed into 96 well plates using a programmable 8-channel peristaltic pump, giving 1000-4000 cells/well, leaving column 12 blank. The plates are returned to the incubator for 24 hours to allow the cells to re-attach.
The compounds being tested are prepared at 10 mM in DMSO. Aliquots (24 μL) are diluted into 1.2 mL culture medium giving 200 μM, and 10 serial dilutions of 3× performed by transferring 80 μL to 160 μL. Aliquots (100 μL) of each dilution are added to the wells, using an 8-channel pipettor, thus performing a final further 2× dilution, and giving doses ranging from 100 μM to 0.005 μM. Column 11 receives plain culture medium only. Each compound is tested in quadruplicate, each replicate being the average of four wells.
After a further 5 days growth, the plates are emptied, and the cells are fixed in 10% trichloroacteic acid for 30 minutes at 4° C. After thorough rinsing in running tap water, the plates are dried, and stained by adding 50 μL of a solution of 0.1% sulphorhodamine-B in 1% acetic acid, for 10 minutes at room temperature. The stain is poured out and the plates thoroughly rinsed under a stream of 1% acetic acid, thus removing unbound stain, and dried. The bound stain is taken into solution by addition of 100 μL Tris buffer pH 8, followed by 10 minutes on a plate-shaker (approximately 500 rpm). The absorbance at 540 nm in each well (being proportional to the number of cells present) is determined using a plate reader.
After averaging the blank values in column 12 this was subtracted from all values, and results expressed as a percentage of the untreated value (column 11). […] The GI50 generated by this procedure is the concentration of the drug that produces a percentage control A540 midway between the saturation, and zero-effect plateaus.

[2] = system: pERK in mutant BRAF WM266.4 cells; experiment: Assay B - cell based phospho-ERK assay; conditions: Homo sapiens, WM 266-4, 6 hours incubation
Method: as §1
Compounds were assessed using a cell-based assay which was performed according to the following protocol.
Plate out 16,000 mutant BRAF WM266.4 cells/well in 99 μL medium in a 96-well plate.
1. Add 1 μL inhibitor (test compound) to the cells (total […]).
2. Incubate the cells with test compound for 6 hours at 37° C.
3. Aspirate off the solution from all of the wells.
4. Fixate the cells with 100 μL 4% formaldehyde/0.25% Triton X-100 PBS per well.
5. Incubate the plate for 1 hour at 4° C.
6. Aspirate off the fixing solution and add 300 μL TBS per well.
7. Leave the plate overnight at 4° C.
1. Wash the plate 2× with 200 μL PBS per well.
2. Block with 100 μL 5% dried milk in TBS.
3. Incubate the plate for 20 minutes at 37° C.
4. Wash the plate 2× with 0.1% tween/H2O.
5. Add 50 μL of 3 μg/mL primary antibody pERK (Sigma M8159), diluted in 5% milk powder/TBS, to each well.
6. Incubate the plate for 2 hours at 37° C.
7. Wash the plate 3× with 0.1% tween/H2O.
8. Add 50 μL of 0.45 μg/mL secondary Europium-labelled anti-mouse antibody (Perkin Elmer) to each well.
9. Incubate the plate for 1 hour at 37° C.
10. Wash the plate 3× with 0.1% tween/H2O.
11. Add 100 μL enhancement solution (Perkin Elmer) to each well.
12. Leave the plate for approximately 10 minutes at room temperature before gently shaking the plate.
13. Read Europium Time Resolved Fluorescence in Victor2.
14. Wash the plate 2× with 0.1% tween/H2O.
15. Measure the protein concentration with BCA (Sigma) by adding 200 μL of solution per well.
16. Incubate the plate for 30 minutes at 37° C.
17. Read absorbance levels at 570 nm in a plate reader.
Note that Europium counts are normalised for protein levels by dividing counts by absorbance.
as §1, with “blank (no cells)” for “blank (Empty Vector)”, “the response).” for “the response.”, “Methods—Assay C—SRB Cell Proliferation” for “Methods—Assay B—Cell Based Phosho-ERK”, “Assay (SRB GI50)” for “Assay”

Row | IC50 (B-RAF) [nM] | GI50 [1] [nM] | IC50 [2] [nM] | Compound
1 | 197 | 57 | 20 | Cc1ccc(-n2nc(C(C)(C)C)cc2NC(=O)Nc2ccc(Oc3ccnc4[nH]c(=O)n(C)c34)cc2F)cc1 [AA-02, 1-(3-Tert-butyl-1-p-tolyl-1H-pyrazol-5-yl)-3-(2-fluoro-4-(1-N-methyl-2-oxo-2,3-dihydro-1H-imidazo[4,5-b]pyridin-7-yloxy)phenyl)urea]
2 | 302 | 121 | 60 | Cn1c(=O)[nH]c2nccc(Oc3ccc(NC(=O)Nc4cc(C(C)(C)C)nn4-c4ccc(Cl)cc4)c(F)c3)c21 [AA-03, 1-(3-Tert-butyl-1-(4-chlorophenyl)-1H-pyrazol-5-yl)-3-(2-fluoro-4-(1-N-methyl-2-oxo-2,3-dihydro-1H-imidazo[4,5-b]pyridin-7-yloxy)phenyl)urea]
